According to patent publication US6500819B2, “Bicyclolactam compounds, use thereof and intermediates for preparing thereof” (Taiho Pharmaceutical Company Limited, priority 1994, dated 2002):

Tests used:
ddY mice [1] = experiment: Effect on central nervous system depressant: pentobarbital anesthetic method; conditions: oral, mice; pentobarbital 40 mg/kg i.p.
Experimental: (§1) Effect On Central Nervous System Depressant
a. Pentobarbital Anesthetic Method
Compound 3, Compound 13, diazepam or buspirone was suspended in a 0.5 % sodium carboxymethyl cellulose solution, and the suspension was orally administered to 3- to 4-week-old male ddY mice (in groups of 5 to 10) in a volume of 10 ml/kg one hour before the start of experiment.
The test was conducted with reference to a method described in “Evaluation of Medicinal Efficacies (1), Pharmacological Test Method (1), Basic lectures on Development of Pharmaceuticals,” 144˜145(1971). More specifically, the group of mice were intraperitoneally given pentobarbital at a dose of 40 mg/kg and checked for sleeping time.

Wistar rats = experiment: Anticonflict test (first part, Test Example 1); type: in vivo; conditions: for Frequency of water drinking behavior: 1 h before test, value relative to control = 100
Experimental: Wistar rats (males weighing 140 to 160 g) were used for experiment in groups of 11 to 14.
The test compound, diazepam or buspirone was suspended in a 0.5 % sodiumn carboxymethyl cellulose solution, and the suspension was orally given to the animal in a volume of 5 mnl/kg one hour before the start of experiment.
With reference to a method described in “Process in Anxiolytics and Antidepresants,” ediled by Showa Ueki and Tatsuo Furukawa, Ishiyaku Shuppansha, 56-59 (1981) , the agents were tested using experimental boxes having a grid floor and a metal drinking tube in the floor. No water was supplied to the rats for 48 hours before the experiment. Upon lapse of first 24 hours, each group of rats were placed into the experimental box, permitted access to water for 30 seconds and caused to recognize the metal drinking tube. Upon lapse of further 24 hours with access to water prevented, the rats were placed into the box again and permitted access to water on condition that an electric current was passed between the metal drinking tube and the grid to give an electroshock for every 20 times of water drinking behavior to measure the frequency of water drinking behavior for 3 minutes.
The frequency is expessed by a value relative to the frequency of the control which is taken as 100.

ddY mice [2] = experiment: Muscle relaxant effect (traction method), first part; conditions: mouse, in vivo, po, 300 mg/kg
Experimental: Muscle Relaxant Effect (Traction Method)
(§2) Compound 3, Compound 13, diazepam or buspirone was suspended in a 0.5 % sodium carboxymethyl cellulose solution, and the suspension was orally administered to 3- to 4-week-old male ddY mice (in groups of 5) in a volume of 10 ml/kg one hour before the start of experiment.
With reference to a method described in Japan. J. Pharmacol., 49. 337˜349(1989), the foreleg of the mouse was hung on a horizontal wire, having a diameter of 1.2 mm and fixed at a level of 30 cm, three times consecutively. […] Thus, ED5 0 was determined for evaluation. […] Diazepam and buspirone were 2.2 mg/kg and 427.8 mg/kg, respectively, in ED5 0.

ddY mice [3] = experiment: Anticonvulsant effect (pentylenetetrazol-induced convulsion method), first part; type: in vivo; conditions: oral, dose of 300 mg/kg
Experimental: Anticonvulsant Effect (Pentylenetetrazol-Induced Convulsion Method)
(§3) Compound 3, Compound 13, diazepam or buspirone was suspended in a 0.5 % sodium carboxymethyl cellulose solution, and the suspension was orally administered to 3- to 4-week-old male ddY mice (in groups of 6) in a volume of 10 ml/kg one hour before the start of experiment.
The test was conducted with reference to a method described in “Evaluation of Medicinal Efficacies (1), Pharmacological Test Method (1), Basic lectures on Development of Pharmaceuticals,” 167˜172(1971).

ddY mice [4] = experiment: Acute toxicity test (LD50), first part; type: in vivo; conditions: oral, male ddY mice, observed for 3 days
ddY mice [5] = experiment: Sedative effect (spontaneous locomotor activity), first part; conditions: mouse, in vivo, po, 300 mg/kg
Experimental: Sedative Effect (Spontaneous Locomotor Activity)
as §2
The test was conducted with reference to a method described in “Evaluation of Medicinal Efficacies (1), Pharmacological Test Method (1), Basic Lectures on Development of Pharmaceuticals,” 50˜54(1971). More specifically, the group of mice were given the test drug and thereafter measured the amount of spontaneous locomotor activity for 10 minutes per mouse rising Animex MK-110 (product of Muromachi Kikai Co., Ltd.).

ddY mice [6] = experiment: Effect on central nervous system depressant: ethanol enhancing method, first part; conditions: mouse, in vivo, po, 300 mg/kg
Experimental: as §1
b. Ethanol Enhancing Method
as §3
The test was conducted with reference to a method described in Japan. J. Pharmacol., 49, 337˜349(1989). More specifically, the group of mice were intraperitoneally given 25 % ethanol at a dose of 20 ml/kg and checked for the time interval between loss and recovery of the righting reflex.

## COc1ccc(C(=O)N2C(=O)CCC3C(O)CCC32)cc1 (centres unmarked) [Compound 13, γ-6,c-7-Hydroxy-2-(4-methoxybenzoyl)-2-azabicyclo-[4.3.0]nonan-3-one]
ddY mice [1]
  ED50, pentobarbital sleeping time in excess of twice control: 224.5 mg/kg
Wistar rats; dose 0.001 mg/kg oral
  Frequency of water drinking behavior: 130%
Wistar rats; dose 0.01 mg/kg oral
  Frequency of water drinking behavior: 183%
Wistar rats; dose 0.1 mg/kg oral
  Frequency of water drinking behavior: 177%
Wistar rats; dose 1.0 mg/kg oral
  Frequency of water drinking behavior: 169%
Wistar rats; oral, compounds at doses of 0.001 to 1.0 mg/kg
  Anxiolytic effect in the anticonflict test (in words): increase in the frequency of water drinking behavior
ddY mice [2]
  Muscle relaxant effect (in words): no muscle relaxant effect
ddY mice [3]
  Anticonvulsant effect (in words): no anticonvtilsant effect
ddY mice [4]
  Acute Toxicity LD50: 3000< mg/kg
ddY mice [5]
  Sedative effect (in words): no sedative effect
ddY mice [6]
  Ethanol enhancing effect (in words): no ethanol enhancing effect
